# Assay results reported in US10017509B2, “Macrocylic pyrimidine derivatives” (Janssen Pharmaceutica NV, priority 2014, dated 2018).
# Experiments:
# EF2K [1] = target: T1, EF2K (Homo sapiens, UniProt O00418); assay: Biochemical EF2K lysate-based kinase assay (AlphaLISA p-eEF2 Thr56); conditions: pIC50 = -log IC50 (M), read-out: eEF2K_C_alphalisa pIC50 (converted)
# T1 construct: host or cells: LN-229 cell lysate
# T1 sequence (O00418 1-725): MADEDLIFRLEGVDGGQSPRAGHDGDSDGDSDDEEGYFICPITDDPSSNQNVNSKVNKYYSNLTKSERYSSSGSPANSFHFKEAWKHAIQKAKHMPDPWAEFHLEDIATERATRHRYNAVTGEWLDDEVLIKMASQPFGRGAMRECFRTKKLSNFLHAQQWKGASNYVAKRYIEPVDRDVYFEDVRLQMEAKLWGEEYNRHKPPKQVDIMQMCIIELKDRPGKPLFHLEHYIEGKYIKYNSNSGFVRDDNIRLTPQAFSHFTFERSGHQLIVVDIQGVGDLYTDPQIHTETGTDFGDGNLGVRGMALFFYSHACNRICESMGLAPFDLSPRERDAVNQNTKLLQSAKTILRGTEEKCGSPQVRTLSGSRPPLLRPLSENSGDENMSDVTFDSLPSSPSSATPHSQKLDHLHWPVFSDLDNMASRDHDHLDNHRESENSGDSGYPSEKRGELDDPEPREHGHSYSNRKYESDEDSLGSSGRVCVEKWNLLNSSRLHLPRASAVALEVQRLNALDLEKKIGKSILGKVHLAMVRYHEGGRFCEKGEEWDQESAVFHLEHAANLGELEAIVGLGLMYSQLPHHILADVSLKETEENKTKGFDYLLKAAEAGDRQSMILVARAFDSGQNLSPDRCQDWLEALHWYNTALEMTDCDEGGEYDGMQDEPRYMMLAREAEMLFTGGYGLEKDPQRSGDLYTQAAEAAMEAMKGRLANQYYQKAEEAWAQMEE
# Description: Biochemical EF2K Lysate-Based Kinase Assay
# LN-229 cells were purchased from ATCC (CRL-2611); these are glioblastoma cells. Cell lysates from LN229 were used in this kinase assay to provide both the kinase and the substrate (EF2). The AlphaLISA p-eEF2 (Thr56) detection assay was developed using a sandwich assay format with two specific antibodies recognizing different epitopes of the target, including one antibody against the phosphorylation site of interest. One anti-eEF2 antibody was conjugated onto AlphaLISA Acceptor beads, while the second antibody was biotinylated and captured by streptavidin coated Donor beads.
# Compound was mixed with LN-229 cell lysates in the presence of a kinase buffer (e.g. HEPES) at a pH of 6.6, containing 10 mM Mg^2+ (e.g. magnesium acetate) and 10 mM adenosine-tri-phosphate (ATP) and incubated at room temperature for 15 minutes. The kinase reaction was stopped with excess ethylenediaminetetraacetic acid disodium salt and the biotinylated-anti phospho eEF2 antibody (3 nM) was added for 1 hour. Then the anti-EF2 acceptor beads (10 μg/ml) as well as the streptavidin coated donor beads (20 μg/ml) were added for 1 hour, and the AlphaLISA signal was measured in an Envision instrument once, left overnight, and measured again for the final read.
# (§1) (pIC50 is −log IC50 where IC50 represents the concentration expressed in M at which the test compound gives 50% inhibition)
# EF2K [2] = target: T1, EF2K; assay: EF2K cell-based assay (P-EF2 AlphaLISA, 2-deoxyglucose stimulated MCF10A cells); conditions: 2.5 mM 2-deoxyglucose stimulated, P-EF2 Thr56, pIC50 = -log IC50 (M), read-out: eEF2K_C_PThr56 pIC50 (converted)
# Experimental: In this assay, 2.5 mM 2-deoxyglucose was used to deplete intracellular ATP and activate 5′ adenosine monophosphate-activated protein kinase (AMPK) in the immortalized epithelial breast cell lines, MCF10A. MCF 10A cells were purchased from ATCC (CRL-10317).
# MCF10A cells are seeded at a density of 1.25×10^5 Cells/ml at 100 μl/well in a 96-well plate and incubated for 24 hours (37° C., 5% CO2). Compound is added for 1 hour, and cell are stimulated with 2.5 mM of 2-deoxy-glucose for 4 hours. Medium is then removed, and cells are lysed in an ice-cold buffer M-PER (Thermo Scientific, 78501), containing protease and phosphatase inhibitors. P-EF2 levels are determined in these lysates using the P-EF2 AlphaLISA described above.
# as §1
# [3] = target: Vps34 (PIK3C3 lipid kinase) (Homo sapiens, UniProt Q8NEB9); assay: Biochemical Vps34 lipid kinase assay (ADP-Glo); conditions: for remaining activity at 1 µM: 1 h, single dose 1 μM compound, residual activity compared to control (DMSO), read-out: VPS34_1microM_% of cntrl; for IC50: serial half-log dilution 10 μM to 0.3 nM, pIC50 = -log IC50 (M)
# Vps34 (PIK3C3 lipid kinase), sequence (Q8NEB9 whole entry, species assumed): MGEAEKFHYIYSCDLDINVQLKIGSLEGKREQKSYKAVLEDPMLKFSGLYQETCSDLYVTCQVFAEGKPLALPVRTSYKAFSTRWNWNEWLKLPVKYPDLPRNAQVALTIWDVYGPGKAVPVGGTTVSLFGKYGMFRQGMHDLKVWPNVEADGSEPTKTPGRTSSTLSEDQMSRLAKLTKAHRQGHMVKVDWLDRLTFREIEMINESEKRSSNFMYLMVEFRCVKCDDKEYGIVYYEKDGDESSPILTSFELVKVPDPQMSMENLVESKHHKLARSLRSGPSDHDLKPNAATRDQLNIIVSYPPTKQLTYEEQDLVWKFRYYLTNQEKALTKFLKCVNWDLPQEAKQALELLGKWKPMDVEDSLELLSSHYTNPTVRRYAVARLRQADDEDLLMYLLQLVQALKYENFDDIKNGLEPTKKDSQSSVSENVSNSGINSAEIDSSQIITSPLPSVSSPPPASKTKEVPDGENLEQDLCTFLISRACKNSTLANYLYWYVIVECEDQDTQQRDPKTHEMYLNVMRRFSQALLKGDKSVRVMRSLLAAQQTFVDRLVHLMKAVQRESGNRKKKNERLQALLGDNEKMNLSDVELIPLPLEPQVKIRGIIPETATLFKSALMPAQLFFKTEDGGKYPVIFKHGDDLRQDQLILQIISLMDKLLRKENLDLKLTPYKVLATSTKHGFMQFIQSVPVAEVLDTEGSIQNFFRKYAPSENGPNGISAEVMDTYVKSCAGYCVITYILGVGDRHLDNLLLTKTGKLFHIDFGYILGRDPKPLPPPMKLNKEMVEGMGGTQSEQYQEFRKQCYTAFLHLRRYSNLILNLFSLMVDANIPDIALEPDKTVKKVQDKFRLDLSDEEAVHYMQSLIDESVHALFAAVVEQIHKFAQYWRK
# Experimental: Biochemical Vps34 Lipid Kinase Assay
# A non-radiometric kinase assay (ADP-Glo™ Assay, Promega, Madison, Wi, USA) was used for measuring the kinase activity of the PIK3C3 lipid kinase. All kinase assays were performed in 96-well half-area microtiter plates in a 25 μl reaction volume. The reaction cocktail was pipetted in 3 steps in the following order: • 10 μl of ATP solution (in assay buffer, see below) • 5 μl of test sample in 5% DMSO 10 μl of enzyme/substrate mixture
# All lipid kinase assays contained 50 mM HEPES (4-(2-hydroxyethyl)-1-piperazineethanesulfonic acid)-NaOH, pH 7.5, 1 mM EGTA ((ethylene glycol tetraacetic acid), 100 mM NaCl, 0.03% CHAPS (3-[(3-Cholamidopropyl)dimethylammonio]-1-propanesulfonate), 2 mM DTT (Dithiothreitol), 20 μM ATP (corresponding to the apparent ATP-Km), kinase (7.6 nM) and substrate (50 μM). The assay for PIK3C3 additionally contained 3 mM MnCl2.
# The reaction cocktails were incubated at 30° C. for 60 minutes. The reaction was stopped with 25 μl ADP-Go™ reagent per well. Plates were incubated for 40 minutes at room temperature, followed by addition of 50 μl kinase detection reagent per well and incubation for 60 minutes at room temperature. Signal was determined with a microplate luminescence reader (Victor, Perkin Elmer). The assay was either performed using a single dose of compound (1 μM final concentration in the assay reaction) with resulting data expressed as residual activity compared to control (DMSO), or using a serial (half-log) dilution of compounds starting at 10 μM and down to 0.3 nM (final concentrations in the assay) with data expressed as the pIC50.
# as §1
SMILES,IC50 (EF2K [1]) [M],IC50 (EF2K [2]) [M],remaining activity at 1 µM [3] [%],IC50 [3] [M]
CN1CCCN(C)c2ccc(cn2)-c2ccnc(n2)Nc2ccnc(c2)CN2CCN(CC2)CC1=O [Compound 32],1.17e-07,5.13e-06,11.1,1.45e-07
CN1CCCN(C)c2ccc(cn2)-c2ccnc(n2)Nc2cncc(c2)CN2CCN(CC2)CC1=O [Compound 33],6.61e-07,2.14e-05,23.9,7.41e-07
O=C1CN2CCN(CC2)Cc2cccc(c2)Nc2nccc(n2)-c2ccc(nc2)CNCCN1 [Compound 34],5.25e-07,~7.24e-06,,8.32e-07
O=C1CN2CCN(CC2)Cc2cccc(c2)Nc2nccc(n2)-c2ccc(nc2)CN(CC2CC2)CCN1 [Compound 35],9.33e-09,1.32e-07,,7.76e-08
C#CCN1CCNC(=O)CN2CCN(CC2)Cc2cccc(c2)Nc2nccc(n2)-c2ccc(nc2)C1 [Compound 36],4.37e-08,1.32e-06,16,3.39e-07
C=CCCN1CCNC(=O)CN2CCN(CC2)Cc2cccc(c2)Nc2nccc(n2)-c2ccc(nc2)C1 [Compound 37],7.59e-09,1.82e-07,,9.55e-08
CC(C)CN1CCNC(=O)CN2CCN(CC2)Cc2cccc(c2)Nc2nccc(n2)-c2ccc(nc2)C1 [Compound 38],8.91e-09,1.86e-07,,7.76e-08
O=C1CN2CCN(CC2)Cc2cccc(c2)Nc2nccc(n2)-c2ccc(nc2)CN(CC2CCOCC2)CCN1 [Compound 39],1.2e-06,3.09e-06,30.7,
O=C1CN2CCN(CC2)Cc2cccc(c2)Nc2nccc(n2)-c2ccc(nc2)CN(CC2CCCO2)CCN1 (stereo not drawn) [Compound 40],1.35e-07,~8.13e-07,17.7,2.24e-07
O=C1CN2CCN(CC2)Cc2cccc(c2)Nc2nccc(n2)-c2ccc(nc2)CN(CCOCC(F)(F)F)CCN1 [Compound 41],~4.47e-07,1.78e-06,30.8,
COCCN1CCNC(=O)CN2CCN(CC2)Cc2cccc(c2)Nc2nccc(n2)-c2ccc(nc2)C1 [Compound 42],3.24e-08,4.27e-07,10.2,3.02e-07
CCCN1CCNC(=O)CN2CCN(CC2)Cc2cccc(c2)Nc2nccc(n2)-c2ccc(nc2)C1 [Compound 43],6.17e-09,1.91e-07,4.32,1.07e-07
O=C1CN2CCN(CC2)Cc2cccc(c2)Nc2nccc(n2)-c2ccc(nc2)CN(C(=O)C2CC2)CCN1 [Compound 44],8.51e-08,2.4e-06,10.2,3.02e-07
C=CCN1CCNC(=O)CN2CCN(CC2)Cc2cccc(c2)Nc2nccc(n2)-c2ccc(nc2)C1 [Compound 45],7.94e-09,2.19e-07,,1.66e-07
O=C1CN2CCN(Cc3cccc(c3)Nc3nccc(n3)-c3ccc(nc3)NCCCN1)C(CO)C2 (stereo not drawn) [Compound 46],1.66e-07,4.9e-06,3.73,2.69e-08
CC1CN2CCN1CC(=O)NCCCNc1ccc(cn1)-c1ccnc(n1)Nc1cccc(c1)C2 (stereo not drawn) [Compound 49],3.89e-07,2.34e-06,37.4,
O=C1CN2CCN(Cc3cccc(c3)Nc3nccc(n3)-c3ccc(nc3)NCCCN1)C(C(F)(F)F)C2 (stereo not drawn) [Compound 50],1.12e-07,4.9e-06,12.4,3.98e-07
CN1CCCN(C)c2ccc(cn2)-c2ccnc(n2)Nc2cccc(c2)CN2CCN(CC1=O)CC2CO (stereo not drawn) [Compound 51],1.55e-07,1.55e-05,14.6,4.79e-07
N#CCCN1CCCNC(=O)CN2CCN(Cc3cccc(c3)Nc3nccc(n3)-c3ccc1nc3)C(CO)C2 (stereo not drawn) [Compound 54],9.12e-07,> 3.02e-05,4.02,8.51e-08
COC(=O)C1CN2CCN1Cc1cccc(c1)Nc1nccc(n1)-c1ccc(nc1)N(C)CCCN(C)C(=O)C2 (stereo not drawn) [Compound 55],1.45e-07,> 3.02e-05,,8.91e-07
O=C1CN2CCCN(CC2)Cc2cccc(c2)Nc2nccc(n2)-c2ccc(nc2)NCCCN1 [Compound 56],4.07e-06,4.47e-06,3.19,1.26e-08
CN1CCCN(C)c2ccc(cn2)-c2ccnc(n2)Nc2cccc(c2)CN2CCCN(CC2)CC1=O [Compound 57],2.57e-06,> 3.02e-05,,2.95e-07
CC1CN2CCN1Cc1cccc(c1)Nc1nccc(n1)-c1ccc(nc1)N(C)CCCN(C)C(=O)C2 (stereo not drawn) [Compound 58],1.17e-07,2.09e-06,15.9,4.27e-07
NC(=O)C1CN2CCN1Cc1cccc(c1)Nc1nccc(n1)-c1ccc(nc1)NCCCNC(=O)C2 (stereo not drawn) [Compound 59],5.75e-07,> 3.02e-05,3.56,3.89e-08
CC1CN2CCN1Cc1cccc(c1)Nc1nccc(n1)-c1ccc(nc1)NCCCNC(=O)C2 (stereo not drawn) [Compound 60],1.78e-07,2.75e-06,6.55,6.46e-08
CN1CCCN(C)c2ccc(cn2)-c2ccnc(n2)Nc2cccc(c2)CN2CCN(CC1=O)C(CCO)C2 (stereo not drawn) [Compound 63],2.4e-07,> 3.02e-05,16.4,3.24e-07
CN1CCCN(C)c2ccc(cn2)-c2ccnc(n2)Nc2cccc(c2)CN2CCN(CC2)C(c2ccccc2)C1=O (stereo not drawn) [Compound 64],7.24e-07,2.63e-05,64.6,
O=C1NCCCNc2ccc(cn2)-c2ccnc(n2)Nc2cccc(c2)CN2CCN(CC2)C1CO (stereo not drawn) [Compound 65],1.66e-07,5.62e-06,10.8,3.31e-07
COCC1C(=O)NCCCNc2ccc(cn2)-c2ccnc(n2)Nc2cccc(c2)CN2CCN1CC2 (stereo not drawn) [Compound 66],7.76e-08,4.17e-06,6.72,1.41e-07
